Experimental data from PubChem BioAssay (NCI).
“And” between values parts separate entries of the source, which are not always exact repeats. Equal entries are not always repeated.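 48-hour exposure; five concentrations; linearly interpolated endpoints. Abbreviation: GI50, concentration required for 50% inhibition of growth. TGI is the concentration that stops growth completely.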

Key:
Assay in all cases: NCI-60 cell line screen, 48 h
A498 renal = tested on: A498 renal
SK-MEL-28 melanoma = tested on: SK-MEL-28 melanoma
RPMI-8226 leukemia = tested on: RPMI-8226 leukemia
NCI-H460 lung = tested on: NCI-H460 lung
TK-10 renal = tested on: TK-10 renal
IGROV1 ovarian = tested on: IGROV1 ovarian
SK-MEL-2 melanoma = tested on: SK-MEL-2 melanoma
SF-295 CNS = tested on: SF-295 CNS
DU-145 prostate = tested on: DU-145 prostate
T-47D breast = tested on: T-47D breast

SMILES | TGI (A498 renal) [µM] | TGI (SK-MEL-28 melanoma) [µM] | TGI (RPMI-8226 leukemia) [µM] | TGI (NCI-H460 lung) | TGI (TK-10 renal) | TGI (IGROV1 ovarian) [µM] | TGI (SK-MEL-2 melanoma) [µM] | TGI (SF-295 CNS) [µM] | GI50 (A498 renal) [µM] | GI50 (DU-145 prostate) | TGI (DU-145 prostate) | GI50 (SK-MEL-28 melanoma) [µM] | GI50 (T-47D breast) | TGI (T-47D breast) | GI50 (NCI-H460 lung) | GI50 (TK-10 renal) | GI50 (IGROV1 ovarian) [µM] | GI50 (SK-MEL-2 melanoma) [µM] | GI50 (SF-295 CNS) [µM] | GI50 (RPMI-8226 leukemia) [µM]
COc1cccc(/C=N\NC(=O)C(C)SC(C)C(=O)N/N=C/c2cccc(OC)c2)c1 (configuration not stated) | 27 | > 72.8 | > 82.3 | 23.2 µM | 36.6 µM | 41.7 | > 62.6 | > 88.6 | – | – | – | – | – | – | – | – | – | – | – | –
C[C@H]1CC[P+](C)(c2ccccc2)C1 (some centres not stated) | > 100 | > 100 | > 100 | > 100 µM | > 100 µM | > 100 | > 100 | > 100 | – | – | – | – | – | – | – | – | – | – | – | –
O=[N+]([O-])/C=C/c1ccc(Cl)cc1[N+](=O)[O-] | 27.8 | 27.7 | – | 33.5 µM | 3.48 µM | 5.85 | 39.7 | 21.6 | 14.5 | 2.52 µM | 5.49 µM | 14 | 2.48 µM | 5.96 µM | 3.42 µM | 1.78 µM | 2.01 | 12.3 | 6.72 | –
O=c1cccc(Cl)[nH]1 | – | > 100 | > 100 | > 100 µM | > 100 µM | > 100 | > 100 | > 100 | – | – | > 100 µM | – | – | > 100 µM | – | – | – | – | – | –
CN(C)c1ccc(C(O)C2=CC(=O)c3ccccc3C2=O)cc1 (configuration not stated) | 63 | – | 66.8 | > 100 µM | 44.3 µM | 4.52 | 11.7 | 93.3 | 15.1 | 2.23 µM | 6.27 µM | – | – | – | 51.9 µM | 12.1 µM | 1.94 | 2.88 | 25.1 | 3.69
N#Cc1cc(S(=O)(=O)Nc2nc3cc(Cl)ccc3o2)c(SCc2ccccc2)cc1Cl | 23.6 | 25.4 | 43 | 28.6 µM | 28 µM | 28.3 | 24.8 | 28 | 11.5 | – | – | 12.8 | 15.9 µM | 30.6 µM | 15.3 µM | 14.8 µM | 15 | 12.4 | 14.5 | 16.3
CCCCCCCCCCCCCCCC[n+]1ccccc1 | – | 2.56 | – | 1.5 µM and 1.94 µM | 0.518 µM and 1.66 µM | 1.9 | 1.76 | 1.42 | – | 0.717 µM and 0.938 µM | 1.99 µM and 2.31 µM | 1.25 | 0.5 µM and 0.445 µM | 3.42 µM and 3.91 µM | 0.388 µM and 0.553 µM | 0.207 µM and 0.432 µM | 0.384 | 0.468 | 0.311 | –
Cc1cc(Cl)ccc1NC(=O)C1C(=O)N(c2ccc(Cl)cc2C)C(=O)/C1=N\NC(N)=S (configuration not stated) | 72.4 | – | > 100 | > 100 µM | > 100 µM | – | – | 86.4 | – | – | – | – | – | – | – | – | – | – | – | –
COc1cc(/C=C2\SC(N3CCCCC3)=NC2=O)ccc1OCCCCCCOc1ccc(/C=C2\SC(N3CCCCC3)=NC2=O)cc1OC | 46.2 | 43.9 | – | 23.8 µM | 27.9 µM | 43 | 93.9 | 47.5 | 12.8 | 5.26 µM | 17.6 µM | 15.7 | 8.9 µM | 44.5 µM | 6.84 µM | 11.5 µM | 11.1 | 21.8 | 13.7 | –
Cc1ccc(C2CC(c3ccc(Nc4ccnc5cc(Cl)ccc45)cc3)=NN2C=O)cc1 (configuration not stated) | – | > 100 | > 100 | > 100 µM | > 100 µM | > 100 | – | > 100 | – | > 100 µM | > 100 µM | > 100 | 1.65 µM | > 100 µM | > 100 µM | > 100 µM | 26.6 | – | 4 | 2.18
Cc1ccc2ccc(-c3ccccc3)c3c2c1C(=O)c1ccccc1C3=O | > 100 | > 100 | > 100 | – | > 100 µM | > 100 | > 100 | > 100 | – | – | – | – | – | – | – | – | – | – | – | –
Cn1cnnc1[S-].[Au+].c1ccc([PH+](c2ccccc2)c2ccccc2)cc1 | – | 2.91 | 5.39 | – | 3.2 µM | – | 3.17 | 3.82 | – | 1.34 µM | 2.66 µM | 1.52 | – | – | – | 1.72 µM | – | 1.6 | 1.85 | 1.69
N#CCc1cccc(CC#N)c1Br | – | – | > 100 | > 100 µM | – | > 100 | > 100 | > 100 | – | – | – | – | – | – | – | – | – | – | – | –
Cc1cc(S(N)(=O)=O)c(S/C(=N\NS(=O)(=O)c2ccccc2)c2ccc(Cl)cc2)cc1Cl | > 100 | > 100 | – | > 100 µM | > 100 µM | > 100 | – | > 100 | 43 | > 100 µM | > 100 µM | > 100 | > 100 µM | > 100 µM | 65.4 µM | > 100 µM | > 100 | – | 22.5 | –
CCc1ccc2c(c1)N(CCO)C1=C(C(=O)OC1)C2c1cc(OC)c(OC)c(OC)c1 (configuration not stated) | 0.932 | > 50 | 42 | 7.62 µM | > 50 µM | > 50 | 0.469 | 0.469 | 0.103 | 0.174 µM | 0.856 µM | 0.275 | – | – | 0.178 µM | 0.248 µM | 0.376 | 0.143 | 0.126 | 0.201
OCC(O)C(O)C(O)c1nn(-c2ccc(F)cc2)c2nc3cc(Cl)c(Cl)cc3nc12 (configuration not stated) | – | 41.9 | > 100 | 82.1 µM | 59.1 µM | 63.6 | 39.2 | > 100 | – | – | – | – | – | – | – | – | – | – | – | –
Cc1cc(NN=C(c2ccc(O)cc2)c2ccc(O)cc2)c([N+](=O)[O-])cc1[N+](=O)[O-] | 23.9 | 21.2 | 4.16 | 8.57 µM | 37.5 µM | – | – | 22.2 | 9.29 | 9.83 µM | 29.5 µM | 5.59 | – | – | 2.62 µM | 4.53 µM | – | – | 4.91 | 1.32
O=C1CCC(=O)N1Sc1ccccc1 | > 100 | > 100 | > 100 | > 100 µM | > 100 µM | > 100 | > 100 | > 100 | – | – | – | – | – | – | – | – | – | – | – | –
COc1cc2c(c(OC)c1OC)C(=O)NCCC2 | > 100 | > 100 | > 100 | > 100 µM | > 100 µM | > 100 | > 100 | > 100 | – | – | – | – | – | – | – | – | – | – | – | –
O=C(O)CCCCC1CCSS1 (configuration not stated) | – | > 100 | > 100 | > 100 µM | > 100 µM | > 100 | > 100 | > 100 | – | – | > 100 µM | – | – | > 100 µM | – | – | – | – | – | –
C1=CC2CCC1CN2CCC1CNc2ccccc21 (configuration not stated) | > 100 | > 100 | > 100 | – | > 100 µM | > 100 | > 100 | > 100 | – | – | – | – | – | – | – | – | – | – | – | –
O=C1OC(=O)C([Se]c2ccccc2)=C1[Se]c1ccccc1 | > 100 | > 100 | > 100 | > 100 µM | > 100 µM | > 100 | – | > 100 | – | – | – | – | – | – | – | – | – | – | – | –
CCCCC1(C(NC(=O)c2ccccc2Cl)c2ccncc2)C(=O)N(c2ccccc2)N(c2ccccc2)C1=O (configuration not stated) | – | > 100 | 84.1 | > 100 µM | > 100 µM | > 100 | > 100 | > 100 | – | – | – | – | – | – | – | – | – | – | – | –
Nc1ccccc1C#Cc1ccccc1C#Cc1cccs1 | 29.5 | 41 | 40.6 | > 100 µM | – | 90.8 | 73.5 | 37.3 | 15.1 | 20.6 µM | 48 µM | 15.7 | – | – | 37.3 µM | – | 18.4 | 30.2 | 16.1 | 14.1
O=C1C(=O)C2(CC1S(=O)(=O)c1ccccc1)c1ccccc1-c1ccccc12 (configuration not stated) | 34.8 | 35.8 | 58.9 | 36.2 µM | 68.9 µM | 47.9 | 33.8 | 37.7 | – | – | – | – | – | – | – | – | – | – | – | –
Cc1ccc(S(=O)C(C)C(Cl)c2ccccc2)cc1 (configuration not stated) | > 100 | > 100 | > 100 | > 100 µM | > 100 µM | > 100 | > 100 | > 100 | – | – | – | – | – | – | – | – | – | – | – | –
COc1ccc(/C=N/NS(=O)(=O)c2ccccc2)cc1 | > 100 | > 100 | > 100 | > 100 µM | > 100 µM | > 100 | > 100 | > 100 | – | – | – | – | – | – | – | – | – | – | – | –
COc1ccc(Br)c(C(=O)N2CCc3ccccc32)c1N | – | > 100 | > 100 | > 100 µM | > 100 µM | > 100 | 84.5 | > 100 | – | – | – | – | – | – | – | – | – | – | – | –
CC(O)[C@H](NC(=O)N[C@@H](CC(N)=O)c1nc(N2CCNCC2)no1)C(=O)O (some centres not stated) | – | > 100 | > 100 | > 100 µM | > 100 µM | > 100 | > 100 | > 100 | – | > 100 µM | > 100 µM | > 100 | > 100 µM | > 100 µM | > 100 µM | > 100 µM | > 100 | > 100 | > 100 | > 100
